Read-outs that look alike come from different tables or passages of the source.
Tests used:
[1] = test system: human breast cancer MCF7 cells; assay: In vitro cell viability assay (MTT), MCF7; format: cell-based
Method: [The source words this procedure for another cell line and reports this cell line under the same test.] The cell viability assay measures how effectively different compounds (i.e., different conjugates or structures) kill cancer cells in vitro. The IC50 value is the compound concentration at which the conjugate kills 50% of the cells, which inhibits 50% of the cells from remaining alive.
For the cell viability assay, the actual potency IC50 values depend on a number of factors, including the length of incubation time. Thus, the cell viability assay is particularly effective for determining the relative toxicity of different compounds.
(§1) Human glioblastoma cells (U87-luc) were seeded in 96-well plates ([…]) and were treated with the compounds of interest at concentrations 1, 3, 10, 30, and 100 µM. At the end of the experiments, the cell cultures were supplemented with MTT reagent (3-(4,5-dimethylthiazol-2-yl)-2,5-diphenyltetrazolium bromide) and incubated for an additional 4 hours. Then, dimethyl sulfoxide ([…]) was added to the cell culture to dissolve the formazan crystals and incubated for 10 minutes at room temperature. The absorbance rate of the cell cultures was read at 570 nm by using a Microplate Reader. All the reactions were performed in triplicate. Measured data of cellular proliferation were calculated using viability values of untreated control cells (100%).

[2] = test system: human glioblastoma U87 cells; assay: In vitro cell viability assay (MTT), U87; format: cell-based; conditions: for IC50: U87 cells; for cell viability result in words: U87 and MCF7 cells
Method: The cell viability assay measures how effectively different compounds (i.e., different conjugates or structures) kill cancer cells in vitro.
For the cell viability assay, the actual potency IC50 values depend on a number of factors, including the length of incubation time.
as §1

[3] = test system: CWR-R1ca-Luc cells; assay: In vivo efficacy, prostate cancer tumors in nude mice; conditions: for average prostate cancer tumor volume: 0.5 mole of compound/kg mouse each day, subcutaneous, 3 weeks; for IVIS average photons (viable tumor tissue) / average prostate cancer tumor weight: at conclusion of 3 weeks, daily subcutaneous dosing
Method: (§2) The animal model and treatment used a total of 50 Athymic Nude-Foxn1^nu male mice which were purchased from Envigo, Indianapolis, IN, USA. The mice were housed in a clean room under strict conditions. Under the approval of the Institutional Animal Care and Use Committee, all animal protocols were carried out in line with the National Institute of Health Guide for the Care and Use of Laboratory Animals. Once cells reached 70-80% confluency, the cells were collected and counted. About 2×10^6 CWR-R1ca-Luc cells were mixed in 1:1 Matrigel® Matrix (Life Sciences, Tewksbury, MA) and injected subcutaneously into the flank of each mouse. Measurement of tumor volume of prostate cancer tumors of mice and mice weights were taken biweekly. When a palpable tumor developed, size 300-500 mm^3, mice were randomized into 10 groups with 5 mice in each group. The corresponding treatment was injected subcutaneously every day per each group up to 3 weeks. Before starting the treatment, the mice were injected with luciferin 150 mg/kg intraperitoneally. After 20 minutes, the mice were anesthetized in an induction chamber using 2% isoflurane, and bioluminescence images were taken using IVIS® Lumina III In Vivo Imaging System (PerkinElmer, Boston, MA) as a base line. Before the end of the experiment, the imaging process was repeated for all mice groups.
(§3) All compounds were dosed at 0.5 mole of compound/kg mouse each day. Thus, a 20 g mouse was dosed at […] of compound per day, and larger mice were dosed at correspondingly higher doses in proportionality to mouse body weight. […] The concentration of each formulation was adjusted so that each dose would be 10 μL solution/g mouse.
FIGS. 4A, 4B, 5, 6 and 7 all pertain to the same experiment conducted with mice having prostate cancer over a study period of three weeks.

[4] = Body weight of tumor-bearing mice (toxicity); format: in vivo; conditions: daily subcutaneous dosing; for toxicity indicated by body weight: 3 weeks; for average body weight: at conclusion of 3 weeks
Method: as §2, §3
FIG. 7 is a bar graph of average body weight of the mice at the conclusion of the study period of three weeks for conjugate 59, conjugate 61, conjugate 62, MMAE chemo, and PBS (control), in accordance with embodiments of the present invention. Average body weight changes over the course of the study relative to control, particularly due to loss of body weight, which can relate to toxicity of the treatment group.

[5] = Solubility in PBS on formulation; format: physicochemical; conditions: formulation for dosing
Method: as §3

[6] = target: T1, integrin αvβ3 receptor (Homo sapiens, UniProt P05106+P06756); assay: In vitro integrin αvβ3 binding assay; conditions: immobilized integrin αvβ3; read-out: IC50, displacement of labelled integrin αvβ3 ligand
T1 construct: purchased ACRO Biosystems (Newark, DE) and/or Bioss Inc (Woburn, MA)
From the text: The in vitro integrin αvβ3 binding assay measures the binding affinity for different compounds (i.e., different conjugates or structures) with immobilized integrin αvβ3 receptor. The IC50 value is the compound concentration at which the compound displaces 50% of a labelled integrin αvβ3 ligand from the integrin αvβ3 receptor, which inhibits 50% of the labelled integrin αvβ3 ligand from binding to the integrin αvβ3 receptor.
Ninety-six polystyrene microtiter plate was coated with fibrinogen and incubated at 4° C. overnight. The wells were blocked with 3% BSA for 2 hours at room temperature and were washed with buffer A (50 mM Tris/HCl, 100 mM NaCl, 1 mM CaCl2), 1 mM MgCl2, 1% BSA) three times. Integrins αvβ3 and increasing concentrations of the compound of interest were added and incubated for 2 hours at room temperature, and then wells were washed three times with buffer A and incubated with a streptavidin HRP conjugate (1:1000 in buffer A) for 1 hour at room temperature. Finally, wells were washed three times with buffer A and […] peroxidase substrate TMB was added, and the reaction was terminated after 30 minutes with 50 µL of 450 nm stop solution for TMB. Absorbance was determined at 450 nm with a Microplate Reader (Bio-Rad, Hercules, CA, USA). […]

[7] = test system: integrin αvβ3 expressing U87 cells; assay: In vitro cell adhesion assay (U87 cells to fibrinogen); format: cell-based, human; conditions: 2 h, read-out: IC50, inhibition of cell adhesion to fibrinogen
From the text: The cell adhesion assay is a cell-based assay that measures how well different compounds (i.e., different conjugates or structures) block the adhesion of integrin αvβ3 expressing U87 cells to fibrinogen, a macromolecule that binds to the integrin αvβ3 receptor. The IC50 value is the compound concentration at which the compound displaces 50% of the cell adhesion to fibrinogen, which inhibits 50% of the cells from adhering to fibrinogen.
The cell adhesion assay is a functional cell assay, so the conjugates cannot be used with chemotherapy attached, because the conjugates will release the chemo over the course of the testing, killing the cells so that no readout can be obtained. Thus, the full conjugate molecule (targeting moiety, PEG, cleavable linker) is used without the chemo for this assay. Two compounds (conjugate 74 and conjugate 59) used are slightly different integrin αvβ3 targeting pieces with a large PEG (PEG 35 and PEG39, respectively), and the VCP cleavable linker attached. […]
96-well microtiter plates were coated with up to […] fibrinogen per well in […] phosphate-buffered saline (PBS) and incubated at 4° C. overnight. […] After washing with PBS, the fluorescence intensity of adherent cells was measured at an emission wavelength of 530 nm using an excitation wavelength of 485 nm by using a Microplate Reader.

T1 sequence (P06756 31-992 limits assumed): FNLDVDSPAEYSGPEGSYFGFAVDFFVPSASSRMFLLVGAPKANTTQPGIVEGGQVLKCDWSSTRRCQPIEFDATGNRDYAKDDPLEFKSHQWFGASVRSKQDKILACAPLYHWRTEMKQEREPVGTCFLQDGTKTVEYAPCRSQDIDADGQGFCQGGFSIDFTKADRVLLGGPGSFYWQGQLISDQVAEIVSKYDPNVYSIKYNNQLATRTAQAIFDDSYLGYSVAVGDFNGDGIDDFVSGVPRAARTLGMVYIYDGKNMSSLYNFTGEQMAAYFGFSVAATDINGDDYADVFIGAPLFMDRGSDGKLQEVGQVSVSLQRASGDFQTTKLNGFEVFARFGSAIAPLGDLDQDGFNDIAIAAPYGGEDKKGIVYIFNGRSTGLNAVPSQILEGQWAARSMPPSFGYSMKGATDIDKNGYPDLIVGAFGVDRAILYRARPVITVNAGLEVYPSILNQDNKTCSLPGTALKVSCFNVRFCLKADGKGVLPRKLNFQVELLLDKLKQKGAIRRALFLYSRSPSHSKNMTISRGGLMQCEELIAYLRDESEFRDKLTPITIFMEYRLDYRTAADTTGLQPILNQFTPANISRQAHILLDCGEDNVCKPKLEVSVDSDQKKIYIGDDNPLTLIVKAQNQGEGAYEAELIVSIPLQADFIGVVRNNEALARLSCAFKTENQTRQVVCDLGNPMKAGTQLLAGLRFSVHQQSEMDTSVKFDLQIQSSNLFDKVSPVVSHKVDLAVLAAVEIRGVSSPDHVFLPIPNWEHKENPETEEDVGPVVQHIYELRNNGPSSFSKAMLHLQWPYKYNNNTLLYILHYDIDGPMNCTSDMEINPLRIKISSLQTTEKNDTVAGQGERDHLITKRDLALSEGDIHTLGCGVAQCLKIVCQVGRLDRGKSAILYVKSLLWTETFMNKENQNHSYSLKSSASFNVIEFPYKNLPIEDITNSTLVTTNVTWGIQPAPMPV
T1 sequence (P05106 27-718 limits assumed): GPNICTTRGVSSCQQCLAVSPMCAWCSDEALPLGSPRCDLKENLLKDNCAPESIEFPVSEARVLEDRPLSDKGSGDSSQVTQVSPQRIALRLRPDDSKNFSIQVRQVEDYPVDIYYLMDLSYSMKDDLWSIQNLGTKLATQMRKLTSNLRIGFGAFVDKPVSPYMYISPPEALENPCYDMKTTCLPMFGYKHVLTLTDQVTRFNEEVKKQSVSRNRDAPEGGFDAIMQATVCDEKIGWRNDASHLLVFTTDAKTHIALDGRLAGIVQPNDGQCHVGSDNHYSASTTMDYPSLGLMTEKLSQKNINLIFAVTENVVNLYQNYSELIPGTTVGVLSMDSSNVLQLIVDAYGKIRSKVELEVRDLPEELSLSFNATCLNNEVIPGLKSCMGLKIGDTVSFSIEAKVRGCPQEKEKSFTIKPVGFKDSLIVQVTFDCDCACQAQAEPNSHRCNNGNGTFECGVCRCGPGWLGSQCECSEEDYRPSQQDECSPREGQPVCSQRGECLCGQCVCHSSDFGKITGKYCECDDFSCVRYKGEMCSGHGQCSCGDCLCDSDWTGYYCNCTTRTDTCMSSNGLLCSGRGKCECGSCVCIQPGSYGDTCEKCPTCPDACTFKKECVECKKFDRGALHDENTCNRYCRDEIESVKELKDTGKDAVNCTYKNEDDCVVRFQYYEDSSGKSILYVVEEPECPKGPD

In the case of `Nc1ccn([C@@H]2O[C@H](CO)[C@@H](O)C2(F)F)c(=O)n1` [Gemcitabine, reference compound], the IC50 ([1]; Homo sapiens) is reported as 1790 nM.

For `CC[C@H](C)[C@@H](C(CC(=O)N1CCC[C@H]1[C@H](OC)[C@@H](C)C(=O)N[C@H](C)[C@@H](O)c1ccccc1)OC)N(C)C(=O)[C@@H](NC(=O)[C@@H](NC)C(C)C)C(C)C` (some centres unmarked) [MMAE, monomethylauristatin E, reference compound], the IC50 ([2]; Homo sapiens, U-87 MG) was 2.51 nM, the IC50 ([1]; Homo sapiens) was 3.85 nM and the “average prostate cancer tumor volume” value [3] was “smaller tumor volumes than the non-MMAE conjugate 59”. The “IVIS average photons (viable tumor tissue)” value [3] was “smaller IVIS® numbers than the non-MMAE conjugate 59”, the “average prostate cancer tumor weight” value [3] was “smaller tumor weights than the non-MMAE conjugate 59” and the “toxicity indicated by body weight” value [4] was “high toxicity”. For the same compound, the average body weight [4] was “a loss of body weight over the course of the experiment” and the “solubility in straight PBS” value [5] was “less soluble in straight PBS”.

Compound `NC(=O)c1cccc2cn(-c3ccc([C@@H]4CCCNC4)cc3)nc12` [Niraparib, reference compound] has an IC50 ([2]; Homo sapiens, U-87 MG) of 155 nM.

Work on `CCc1c2c(nc3ccc(O)cc13)-c1cc3c(c(=O)n1C2)COC(=O)[C@]3(O)CC` [SN38, reference compound] yielded an IC50 ([2]; Homo sapiens, U-87 MG) of 4.32 nM and an IC50 ([1]; Homo sapiens) of 5.67 nM.

`CC(C)[C@H](NC(=O)CCc1cn(CCOCCOCCOCCOCCOCCOCCOCCOCCOCCOCCOCCOCCOCCOCCOCCOCCOCCOCCOCCOCCOCCOCCOCCOCCOCCOCCOCCOCCOCCOCCOCCOCCOCCOCCOCCNC(=O)CC[C@H](NS(=O)(=O)c2ccccc2)C(=O)O)nn1)C(=O)N[C@@H](CCCNC(N)=O)C(=O)Nc1ccc(COC(=O)N2CCCC(c3ccc(-n4cc5cccc(C(N)=O)c5n4)cc3)C2)cc1` (some centres unmarked) [conjugate 40] showed an IC50 [6] of 3.36 ± 0.22 nM and an IC50 [2] of 1740 nM.

For `CC(C)[C@H](NC(=O)CCc1cn(CCOCCOCCOCCOCCOCCOCCOCCOCCOCCOCCOCCOCCOCCOCCOCCOCCOCCOCCOCCOCCOCCOCCOCCOCCOCCOCCOCCOCCOCCOCCOCCOCCOCCOCCOCCNC(=O)CCC(NS(=O)(=O)c2ccccc2)C(=O)O)nn1)C(=O)N[C@@H](CCCNC(N)=O)C(=O)Nc1ccc(COC(=O)Nc2ccn([C@@H]3O[C@H](CO)C(O)C3(F)F)c(=O)n2)cc1` (some centres unmarked) [conjugate 45], the IC50 [6] was 0.84 ± 0.16 nM and the IC50 [1] was 3970 nM.

`CC(C)[C@H](NC(=O)CCOCCOCCOCc1cn(CCOCCOCCOCCOCCOCCOCCOCCOCCOCCOCCOCCOCCOCCOCCOCCOCCOCCOCCOCCOCCOCCOCCOCCOCCOCCOCCOCCOCCOCCOCCOCCOCCOCCOCCOCCOCCC(=O)NC[C@H](NS(=O)(=O)c2ccccc2)C(=O)O)nn1)C(=O)N[C@@H](CCCNC(N)=O)C(=O)Nc1ccc(CO)cc1` [conjugate 59] gave an IC50 [7] of 103 ± 1.7 nM.

With `CC[C@H](C)[C@@H]([C@@H](CC(=O)N1CCC[C@H]1[C@H](OC)[C@@H](C)C(=O)N[C@H](C)[C@@H](O)c1ccccc1)OC)N(C)C(=O)[C@@H](NC(=O)[C@H](C(C)C)N(C)C(=O)OCc1ccc(NC(=O)[C@H](CCCNC(N)=O)NC(=O)[C@@H](NC(=O)CCOCCOCCOCc2cn(CCOCCOCCOCCOCCOCCOCCOCCOCCOCCOCCOCCOCCOCCOCCOCCOCCOCCOCCOCCOCCOCCOCCOCCOCCOCCOCCOCCOCCOCCOCCOCCOCCOCCOCCOCCOCCC(=O)NC[C@H](NS(=O)(=O)c3ccccc3)C(=O)O)nn2)C(C)C)cc1)C(C)C` [conjugate 61] the “average prostate cancer tumor volume” value [3] was “inhibits tumor growth more than the PEG15 conjugate 62”, the “IVIS average photons (viable tumor tissue)” value [3] was “much smaller than the smaller PEG15 conjugate 62 and MMAE alone” and the “average prostate cancer tumor weight” value [3] was “comparable to the smaller PEG15 MMAE conjugate 62”. For the same compound, the “toxicity indicated by body weight” value [4] was “mild toxicity” and the average body weight [4] was “only a small difference compared to the PBS control”.

For `CCc1c2c(nc3ccc(O)cc13)-c1cc3c(c(=O)n1C2)COC(=O)[C@@]3(CC)OC(=O)N(C)CCN(C)C(=O)OCc1ccc(NC(=O)[C@H](CCCNC(N)=O)NC(=O)[C@@H](NC(=O)CCc2cn(CCOCCOCCOCCOCCOCCOCCOCCOCCOCCOCCOCCOCCOCCOCCOCCOCCOCCOCCOCCOCCOCCOCCOCCOCCOCCOCCOCCOCCOCCOCCOCCOCCOCCOCCOCCOC)nn2)C(C)C)cc1` [conjugate 73], the “cell viability result in words” value [2] was “no activity”, the IC50 [2] was greater than 10000 nM and the IC50 [1] was greater than 10000 nM.

With `CC(C)[C@H](NC(=O)CCc1cn(CCOCCOCCOCCOCCOCCOCCOCCOCCOCCOCCOCCOCCOCCOCCOCCOCCOCCOCCOCCOCCOCCOCCOCCOCCOCCOCCOCCOCCOCCOCCOCCOCCOCCOCCOCCNC(=O)CC[C@H](NS(=O)(=O)c2ccccc2)C(=O)O)nn1)C(=O)N[C@@H](CCCNC(N)=O)C(=O)Nc1ccc(CO)cc1` [conjugate 74] the IC50 [7] was 54 ± 2.2 nM, the “cell viability result in words” value [2] was “does not cause cell death” and the IC50 [2] was greater than 10000 nM. The IC50 [1] was greater than 10000 nM.
